Laboratory results reported in patent US20110160206A1, “TRI-SUBSTITUTED PYRIMIDINE COMPOUNDS AND THEIR USE AS PDE10 INHIBITORS” (priority 2009, published 2011).
Where a name gives a salt, the structure may show the parent alone.

molecular target: T1, PDE10 (PDE10A) (Bos taurus, UniProt A0A3Q1MHJ4); experiment: Measurement of PDE10 inhibitory activity (radiolabeled nucleotide PDE assay); type: biochemical; conditions: PDE10A from bovine corpus striatum; [3H]cAMP 7 nM final; room temperature 90 min
T1 construct: isolated and prepared from bovine corpus striatum; from tissue; host or cells: bovine corpus striatum
T1 sequence (A0A3Q1MHJ4 1-1068): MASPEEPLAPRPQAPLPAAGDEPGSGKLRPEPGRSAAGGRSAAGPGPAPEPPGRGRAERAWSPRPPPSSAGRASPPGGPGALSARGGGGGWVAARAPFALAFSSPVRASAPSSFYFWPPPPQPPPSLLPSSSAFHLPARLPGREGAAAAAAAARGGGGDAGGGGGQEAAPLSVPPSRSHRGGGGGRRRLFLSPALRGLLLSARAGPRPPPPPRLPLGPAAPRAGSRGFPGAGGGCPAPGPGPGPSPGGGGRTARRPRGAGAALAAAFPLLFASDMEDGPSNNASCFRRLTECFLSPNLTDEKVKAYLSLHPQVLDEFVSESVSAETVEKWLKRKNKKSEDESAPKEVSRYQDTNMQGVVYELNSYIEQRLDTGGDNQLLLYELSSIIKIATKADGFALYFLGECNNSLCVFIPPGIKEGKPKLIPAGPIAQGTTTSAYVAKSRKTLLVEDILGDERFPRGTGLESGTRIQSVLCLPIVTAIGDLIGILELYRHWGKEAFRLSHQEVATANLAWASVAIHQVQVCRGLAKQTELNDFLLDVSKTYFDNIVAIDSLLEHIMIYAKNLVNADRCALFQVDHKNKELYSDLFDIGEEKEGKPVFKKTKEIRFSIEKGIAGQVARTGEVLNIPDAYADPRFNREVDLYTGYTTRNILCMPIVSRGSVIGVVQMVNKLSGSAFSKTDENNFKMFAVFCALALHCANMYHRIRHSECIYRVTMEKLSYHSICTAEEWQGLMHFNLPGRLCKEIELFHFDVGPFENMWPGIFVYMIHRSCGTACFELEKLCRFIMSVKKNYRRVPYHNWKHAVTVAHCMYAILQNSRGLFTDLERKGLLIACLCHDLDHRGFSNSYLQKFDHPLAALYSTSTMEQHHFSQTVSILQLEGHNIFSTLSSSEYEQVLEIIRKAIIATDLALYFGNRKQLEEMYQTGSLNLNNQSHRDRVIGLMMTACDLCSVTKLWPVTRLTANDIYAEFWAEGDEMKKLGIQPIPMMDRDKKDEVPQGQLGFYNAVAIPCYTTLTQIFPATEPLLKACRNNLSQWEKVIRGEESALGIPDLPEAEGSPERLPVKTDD
Experimental: (1) The enzyme PDE10 (PDE10A) was isolated and prepared from bovine corpus striatum, according to the methods described in references Fujishige et al., Eur. J. Biochem., vol. […] The enzyme solution obtained was used for a PDE assay.
Specifically, the measurements of the inhibitory activities were carried out in the following method.
(Method) The test compounds were dissolved in dimethyl sulfoxide (DMSO). […] The final concentration of cAMP in the reaction mixtures was 7 nM. The reaction mixtures were incubated at room temperature for 90 min under dark conditions. After incubation, the reaction was stopped by adding 100 μL of methanol and resultant solutions were applied to filter plate containing Dowex (1×8 200-400) and centrifuged. 50 μL of the eluate together with wash eluate with additional 100 μL methanol was collected in another plate and the radioactivity was measured with 250 μL of scintillant.
(2) The compounds in the Examples below were tested for PDE inhibition using the Method described above.

SMILES | IC50
CN(C)c1nc2ccccc2nc1/C=C/c1nc(NC2CCOCC2)cc(N2CCCC2)n1 [Example 1.001, N,N-dimethyl-3-{(E)-2-[4-pyrrolidin-1-yl-6-(tetrahydro-2H-pyran-4-ylamino)pyrimidin-2-yl]vinyl}quinoxalin-2-amine dihydrochloride] | 0.1 nM
COCCNc1cc(N2CCCC2)nc(/C=C/c2nc3ccccc3nc2N(C)C)n1 [Example 1.003, 3-((E)-2-{4-[(2-methoxyethyl)amino]-6-pyrrolidin-1-ylpyrimidin-2-yl}vinyl)-N,N-dimethylquinoxalin-2-amine] | 0.6 nM
CN(C)c1nc2ccccc2nc1/C=C/c1nc(N[C@@H]2CCS(=O)(=O)C2)cc(N2CCCC2)n1 [Example 1.007, 3-[(E)-2-(4-{[(3R)-1,1-dioxidotetrahydro-3-thienyl]amino}-6-pyrrolidin-1-ylpyrimidin-2-yl)vinyl]-N,N-dimethylquinoxalin-2-amine] | 0.09 nM
CN(c1nc2ccccc2nc1/C=C/c1nc(NC2CCOCC2)cc(N2CCCC2)n1)C1CC1 [Example 1.010, N-cyclopropyl-N-methyl-3-{(E)-2-[4-pyrrolidin-1-yl-6-(tetrahydro-2H-pyran-4-ylamino)pyrimidin-2-yl]vinyl}quinoxalin-2-amine] | 0.48 nM
Cc1nc2ccccc2nc1/C=C/c1nc(N[C@H]2CC[C@](C)(O)CC2)cc(N2CCCC2)n1 [Example 1.020, trans-1-methyl-4-({2-[(E)-2-(3-methylquinoxalin-2-yl)vinyl]-6-pyrrolidin-1-ylpyrimidin-4-yl}amino)cyclohexanol] | 0.073 nM
Cc1nc2ccccc2nc1/C=C/c1nc(N[C@H]2CC[C@H](CO)CC2)cc(N2CCCC2)n1 [Example 1.024, [trans-4-({2-[(E)-2-(3-methylquinoxalin-2-yl)vinyl]-6-pyrrolidin-1-ylpyrimidin-4-yl}amino)cyclohexyl]methanol] | 0.039 nM
Cc1cc2nc(C)c(/C=C/c3nc(N[C@@H]4CCOC4)cc(N4CCCC4)n3)nc2cc1C [Example 1.041, 6-pyrrolidin-1-yl-N-[(3R)-tetrahydrofuran-3-yl]-2-[(E)-2-(3,6,7-trimethylquinoxalin-2-yl)vinyl]pyrimidin-4-amine] | 0.66 nM
CO[C@H]1CC[C@H](Nc2cc(N3CCCC3)nc(/C=C/c3nc4ccc(F)cc4nc3C)n2)CC1 [Example 1.048, 2-[(E)-2-(6-fluoro-3-methylquinoxalin-2-yl)vinyl]-N-(trans-4-methoxycyclohexyl)-6-pyrrolidin-1-ylpyrimidin-4-amine dihydrochloride] | 0.04 nM
Cc1nc2ccc(F)cc2nc1/C=C/c1nc(NC2CCOCC2)cc(N2CCCC2)n1 [Example 1.050, 2-[(E)-2-(7-fluoro-3-methylquinoxalin-2-yl)vinyl]-6-pyrrolidin-1-yl-N-(tetrahydro-2H-pyran-4-yl)pyrimidin-4-amine hydrochloride] | 0.14 nM
Cc1ccc2nc(C)c(/C=C/c3nc(N[C@H]4CC[C@](C)(O)CC4)cc(N4CCCC4)n3)nc2c1 [Example 1.064, trans-4-({2-[(E)-2-(3,7-dimethylquinoxalin-2-yl)vinyl]-6-pyrrolidin-1-ylpyrimidin-4-yl}amino)-1-methylcyclohexanol] | 0.048 nM
Cc1nc2ccc(C(F)(F)F)cc2nc1/C=C/c1nc(N[C@@H]2CCS(=O)(=O)C2)cc(N2CCCC2)n1 [Example 1.074, N-[(3R)-1,1-dioxidotetrahydro-3-thienyl]-2-{(E)-2-[3-methyl-7-(trifluoromethyl)quinoxalin-2-yl]vinyl}-6-pyrrolidin-1-ylpyrimidin-4-amine] | 0.0033 nM
COc1ccc2nc(C)c(/C=C/c3nc(NC4CCOCC4)cc(N4CCCC4)n3)nc2c1 [Example 1.078, 2[(E)-2-(7-methoxy-3-methylquinoxalin-2-yl)vinyl]-6-pyrrolidin-1-yl-N-(tetrahydro-2H-pyran-4-yl)pyrimidin-4-amine dihydrochloride] | 0.047 nM
Cc1nc2ccc(OC(F)(F)F)cc2nc1/C=C/c1nc(N[C@H]2CC[C@H](O)CC2)cc(N2CCCC2)n1 [Example 1.084, trans-4-[(2-{(E)-2-[3-methyl-7-(trifluoromethoxy)quinoxalin-2-yl]vinyl}-6-pyrrolidin-1-ylpyrimidin-4-yl)amino]cyclohexanol] | 0.011 nM
Cc1cc2ccccc2nc1/C=C/c1nc(NC2CCOCC2)cc(N2CCCC2)n1 [Example 1.090, 2-[(E)-2-(3-methylquinolin-2-yl)vinyl]-6-pyrrolidin-1-yl-N-(tetrahydro-2H-pyran-4-yl)pyrimidin-4-amine] | 0.36 nM
Cc1cc2ccccc2nc1/C=C/c1nc(N[C@@H]2CCS(=O)(=O)C2)cc(N2CCCC2)n1 [Example 1.093, N-[(3R)-1,1-dioxidotetrahydro-3-thienyl]-2-[(E)-2-(3-methylquinolin-2-yl)vinyl]-6-pyrrolidin-1-ylpyrimidin-4-amine] | 0.3 nM
Oc1nc2ccccc2nc1/C=C/c1nc(NC2CCOCC2)cc(N2CCCC2)n1 [Example 1.094, 3-{(E)-2-[4-pyrrolidin-1-yl-6-(tetrahydro-2H-pyran-4-ylamino)pyrimidin-2-yl]vinyl}quinoxalin-2-ol hydrochloride] | 0.17 nM
CN(C)c1nc2ccccc2nc1/C=C/c1nc(N2CCCC2)cc(N2CCOCC2)n1 [Example 1.095, N,N-dimethyl-3-[(E)-2-(4-morpholin-4-yl-6-pyrrolidin-1-ylpyrimidin-2-yl)vinyl]quinoxalin-2-amine] | 0.79 nM
CN(C)c1nc2ccccc2nc1/C=C/c1nc(N2CCCC2)cc(N(C2CCOCC2)C2CC2)n1 [Example 1.099, 3-((E)-2-{4-[cyclopropyl(tetrahydro-2H-pyran-4-yl)amino]-6-pyrrolidin-1-ylpyrimidin-2-yl}vinyl)-N,N-dimethylquinoxalin-2-amine] | 0.1 nM
CN(c1cc(N2CCCC2)nc(/C=C/c2nc3ccccc3nc2N(C)C2CC2)n1)C1CCOCC1 [Example 1.101, N-cyclopropyl-N-methyl-3-((E)-2-{4-[methyl(tetrahydro-2H-pyran-4-yl)amino]-6-pyrrolidin-1-ylpyrimidin-2-yl}vinyl)quinoxalin-2-amine] | 0.46 nM
CO[C@H]1CC[C@H](Nc2cc(N3CCCC3)nc(CCc3nc4cc(C(F)(F)F)ccc4nc3C)n2)CC1 [Example 4.003, N-(trans-4-methoxycyclohexyl)-2-{2-[3-methyl-7-(trifluoromethyl)quinoxalin-2-yl]ethyl}-6-pyrrolidin-1-ylpyrimidin-4-amine] | 0.031 nM
Cc1nc2ccccc2nc1OCc1nc(N2CCCC2)cc(N(C)C2CCOCC2)n1 [Example 5.002, N-methyl-2-{[(3-methylquinoxalin-2-yl)oxy]methyl}-6-pyrrolidin-1-yl-N-(tetrahydro-2H-pyran-4-yl)pyrimidin-4-amine hydrochloride] | 0.61 nM
Cc1nc2ccccc2nc1OCc1cc(NC2CCOCC2)nc(N2CCCC2)n1 [Example 6.001, 6-[(3-methylquinoxalin-2-yl)oxy]methyl-2-pyrrolidin-1-yl-N-(tetrahydro-2H-pyran-4-yl)pyrimidin-4-amine hydrochloride] | 0.22 nM
